# According to patent US10167262B2, “Herbicidal substituted 3-arylpyrazoles” (FMC CORPORATION, priority 2014, dated 2019):
# Columns and labels:
# Type in all cases: in vivo
# [1] = tested on: barnyardgrass (Echinochloa crus-galli); experiment: Test C pre-/postemergence greenhouse test, plant response rating 0-100
# Outline: (§1)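 Visual 0–100 control scores, taken 13 to 15 days post-application in a greenhouse, reflect treatment preemergence (seed in loam soil with sand) or postemergence (2–18 cm plants in peat moss, vermiculite medium). A dash marks no result.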
# [2] = tested on: waterhemp (common waterhemp, Amaranthus rudis); experiment: as above
# Outline: as §1
# [3] = tested on: barnyardgrass (Echinochloa crus-galli); experiment: Test B flooded paddy test, plant response rating 0-100; settings: Flood, 250 g ai/ha; scale 0 to 100 (0 no effect, 100 complete control); 13 to 15 days
# Outline: (§2)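 Pots were flooded to 3 cm above the soil surface at treatment, compound applied directly to the paddy water, and that depth held throughout. Plants were kept in a greenhouse for 13 to 15 days, then visually rated against untreated controls.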
# [4] = tested on: sedge, umbrella (small-flower umbrella sedge, Cyperus difformis); experiment: as above; settings: Flood, 250 g ai/ha; scale 0 to 100 (0 no effect, 100 complete control); 13 to 15 days
# Outline: as §2
# [5] = tested on: ducksalad (Heteranthera limosa); experiment: as above; settings: Flood, 250 g ai/ha; scale 0 to 100 (0 no effect, 100 complete control); 13 to 15 days
# Outline: as §2
# rice (Oryza sativa) = experiment: as above; settings: Flood, 250 g ai/ha; scale 0 to 100 (0 no effect, 100 complete control); 13 to 15 days
# Outline: as §2
# [6] = tested on: field bindweed (Convolvulus arvensis); experiment: Test E pre-/postemergence greenhouse test, plant response rating 0-100; settings: scale 0 to 100; for Field Bindweed plant response rating: Preemergence
# Outline: (§3)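 Sow seeds in silt loam and treat preemergence; at the same time, spray postemergence on 1- to 4-leaf plants in peat/vermiculite mix. Use a non-phytotoxic solvent plus surfactant as carrier. Hold 14–21 days in greenhouse, then score visually 0–100 against controls.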
# [7] = tested on: Italian ryegrass (Lolium multiflorum); experiment: as above; settings: scale 0 to 100; for Ryegrass, Italian plant response rating: Preemergence
# Outline: as §3
# [8] = tested on: dayflower (Virginia (VA) dayflower, Commelina virginica); experiment: as above; settings: scale 0 to 100; for Dayflower, VA plant response rating: Preemergence
# Outline: as §3
# [9] = tested on: waterhemp_RES2, (ALS & HPPD resistant common waterhemp, Amaranthus rudis); experiment: Test E postemergence greenhouse test, plant response rating 0-100; settings: scale 0 to 100
# Outline: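 Visual ratings, 0 (no effect) to 100 (complete control), made versus controls 14–21 days after postemergence application in the greenhouse. Plants were at 1- to 4-leaf stage (2–18 cm) in peat moss/vermiculite potting medium.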
# [10] = Postemergence, 125 g ai/ha, scale 0 to 100
# [11] = Postemergence, 250 g ai/ha, scale 0 to 100
# [12] = Postemergence, 500 g ai/ha, scale 0 to 100
smiles,measurement,setting,value
"COCC(=O)n1cc(C(=O)c2ccccc2)c(-c2cc(Cl)cc(Cl)c2)n1 [Compound 16, 1-[4-benzoyl-3-(3,5-dichlorophenyl)-1H-pyrazol-1-yl]-2-methoxyethanone]","Plant response rating (0 to 100), Barnyardgrass","[1]; Postemergence, 62 g ai/ha",0
same,"Plant response rating, Barnyardgrass",[1]; [10],0
same,"Plant response rating, Barnyardgrass",[1]; [11],0
same,"Plant response rating, Barnyardgrass",[1]; [12],0
same,"Plant response rating, Barnyardgrass","[1]; Preemergence, 62 g ai/ha",0
same,"Plant response rating, Barnyardgrass","[1]; Preemergence, 125 g ai/ha",0
same,"Plant response rating, Barnyardgrass","[1]; Preemergence, 250 g ai/ha",0
same,"Plant response rating, Barnyardgrass","[1]; Preemergence, 500 g ai/ha",0
same,"Plant response rating (0 to 100), Waterhemp","[2]; Postemergence, 62 g ai/ha",90
same,"Plant response rating (0 to 100), Waterhemp","[2]; Postemergence, 125 g ai/ha",95
same,"Plant response rating, Waterhemp",[2]; [11],98
same,"Plant response rating, Waterhemp",[2]; [12],100
same,"Plant response rating, Waterhemp","[2]; Preemergence, 62 g ai/ha",100
same,"Plant response rating, Waterhemp","[2]; Preemergence, 125 g ai/ha",100
same,"Plant response rating, Waterhemp","[2]; Preemergence, 250 g ai/ha",100
same,"Plant response rating, Waterhemp","[2]; Preemergence, 500 g ai/ha",100
same,"Plant response rating, Barnyardgrass",[3],0
same,"Plant response rating, Sedge, Umbrella",[4],0
same,"Plant response rating, Ducksalad",[5],0
same,"Plant response rating, Rice",rice (Oryza sativa),0
same,pest or weed control at 31 g/ha,"[6]; Convolvulus arvensis, post-emergence, Postemergence, 31 g ai/ha",0%
same,pest or weed control at 62 g/ha,"[6]; Convolvulus arvensis, post-emergence, Postemergence, 62 g ai/ha",0%
same,pest or weed control at 125 g/ha,"[6]; Convolvulus arvensis, post-emergence, Postemergence, 125 g ai/ha",0%
same,pest or weed control at 250 g/ha,"[6]; Convolvulus arvensis, post-emergence, Postemergence, 250 g ai/ha",0%
same,pest or weed control at 500 g/ha,"[6]; Convolvulus arvensis, post-emergence, Postemergence, 500 g ai/ha",0%
same,Field Bindweed plant response rating,[6]; 31 g ai/ha,0
same,Field Bindweed plant response rating,[6]; 62 g ai/ha,0
same,Field Bindweed plant response rating,[6]; 125 g ai/ha,0
same,Field Bindweed plant response rating,[6]; 250 g ai/ha,0
same,Field Bindweed plant response rating,[6]; 500 g ai/ha,30
same,pest or weed control at 31 g/ha,"[7]; Lolium multiflorum, post-emergence, Postemergence, 31 g ai/ha",0%
same,pest or weed control at 62 g/ha,"[7]; Lolium multiflorum, post-emergence, Postemergence, 62 g ai/ha",0%
same,pest or weed control at 125 g/ha,"[7]; Lolium multiflorum, post-emergence, Postemergence, 125 g ai/ha",0%
same,pest or weed control at 250 g/ha,"[7]; Lolium multiflorum, post-emergence, Postemergence, 250 g ai/ha",0%
same,pest or weed control at 500 g/ha,"[7]; Lolium multiflorum, post-emergence, Postemergence, 500 g ai/ha",0%
same,"Ryegrass, Italian plant response rating",[7]; 31 g ai/ha,0
same,"Ryegrass, Italian plant response rating",[7]; 62 g ai/ha,0
same,"Ryegrass, Italian plant response rating",[7]; 125 g ai/ha,0
same,"Ryegrass, Italian plant response rating",[7]; 250 g ai/ha,0
same,"Ryegrass, Italian plant response rating",[7]; 500 g ai/ha,0
same,pest or weed control at 31 g/ha,"[8]; Commelina virginica, post-emergence, Postemergence, 31 g ai/ha",0%
same,pest or weed control at 62 g/ha,"[8]; Commelina virginica, post-emergence, Postemergence, 62 g ai/ha",0%
same,pest or weed control at 125 g/ha,"[8]; Commelina virginica, post-emergence, Postemergence, 125 g ai/ha",0%
same,pest or weed control at 250 g/ha,"[8]; Commelina virginica, post-emergence, Postemergence, 250 g ai/ha",0%
same,pest or weed control at 500 g/ha,"[8]; Commelina virginica, post-emergence, Postemergence, 500 g ai/ha",0%
same,"Dayflower, VA plant response rating",[8]; 31 g ai/ha,0
same,"Dayflower, VA plant response rating",[8]; 62 g ai/ha,0
same,"Dayflower, VA plant response rating",[8]; 125 g ai/ha,0
same,"Dayflower, VA plant response rating",[8]; 250 g ai/ha,0
same,"Dayflower, VA plant response rating",[8]; 500 g ai/ha,0
same,"Plant response rating, Waterhemp_RES2",[9]; 31 g ai/ha,95
same,"Plant response rating, Waterhemp_RES2",[9]; 62 g ai/ha,95
same,"Plant response rating, Waterhemp_RES2",[9]; 125 g ai/ha,75
same,"Plant response rating, Waterhemp_RES2",[9]; 250 g ai/ha,98
same,"Plant response rating, Waterhemp_RES2",[9]; 500 g ai/ha,100
O=Cn1cc(C(=O)c2ccccc2)c(-c2cc(Cl)cc(Cl)c2)n1 [Compound 28],"Plant response rating (0 to 100), Barnyardgrass","[1]; Postemergence, 62 g ai/ha",0
same,"Plant response rating, Barnyardgrass",[1]; [10],0
same,"Plant response rating, Barnyardgrass",[1]; [11],0
same,"Plant response rating, Barnyardgrass",[1]; [12],0
same,"Plant response rating, Barnyardgrass","[1]; Preemergence, 62 g ai/ha",0
same,"Plant response rating, Barnyardgrass","[1]; Preemergence, 125 g ai/ha",0
same,"Plant response rating, Barnyardgrass","[1]; Preemergence, 250 g ai/ha",0
same,"Plant response rating, Barnyardgrass","[1]; Preemergence, 500 g ai/ha",0
same,"Plant response rating (0 to 100), Waterhemp","[2]; Postemergence, 62 g ai/ha",95
same,"Plant response rating (0 to 100), Waterhemp","[2]; Postemergence, 125 g ai/ha",98
same,"Plant response rating, Waterhemp",[2]; [11],98
same,"Plant response rating, Waterhemp",[2]; [12],100
same,"Plant response rating, Waterhemp","[2]; Preemergence, 62 g ai/ha",100
same,"Plant response rating, Waterhemp","[2]; Preemergence, 125 g ai/ha",100
same,"Plant response rating, Waterhemp","[2]; Preemergence, 250 g ai/ha",100
same,"Plant response rating, Waterhemp","[2]; Preemergence, 500 g ai/ha",100
same,"Plant response rating, Barnyardgrass",[3],0
same,"Plant response rating, Sedge, Umbrella",[4],0
same,"Plant response rating, Ducksalad",[5],0
same,"Plant response rating, Rice",rice (Oryza sativa),0
same,"Plant response rating, Field Bindweed","[6]; Postemergence, 31 g ai/ha",0
same,"Plant response rating, Field Bindweed","[6]; Postemergence, 62 g ai/ha",0
same,"Plant response rating, Field Bindweed","[6]; Postemergence, 125 g ai/ha",0
same,"Plant response rating, Field Bindweed","[6]; Postemergence, 250 g ai/ha",10
same,"Plant response rating, Field Bindweed","[6]; Postemergence, 500 g ai/ha",20
same,Field Bindweed plant response rating,[6]; 31 g ai/ha,0
same,Field Bindweed plant response rating,[6]; 62 g ai/ha,0
same,Field Bindweed plant response rating,[6]; 125 g ai/ha,0
same,Field Bindweed plant response rating,[6]; 250 g ai/ha,0
same,Field Bindweed plant response rating,[6]; 500 g ai/ha,0
same,"Plant response rating, Ryegrass, Italian","[7]; Postemergence, 31 g ai/ha",0
same,"Plant response rating, Ryegrass, Italian","[7]; Postemergence, 62 g ai/ha",0
same,"Plant response rating, Ryegrass, Italian","[7]; Postemergence, 125 g ai/ha",0
same,"Plant response rating, Ryegrass, Italian","[7]; Postemergence, 250 g ai/ha",0
same,"Plant response rating, Ryegrass, Italian","[7]; Postemergence, 500 g ai/ha",0
same,"Ryegrass, Italian plant response rating",[7]; 31 g ai/ha,0
same,"Ryegrass, Italian plant response rating",[7]; 62 g ai/ha,0
same,"Ryegrass, Italian plant response rating",[7]; 125 g ai/ha,0
same,"Ryegrass, Italian plant response rating",[7]; 250 g ai/ha,10
same,"Ryegrass, Italian plant response rating",[7]; 500 g ai/ha,20
same,"Plant response rating, Dayflower, VA","[8]; Postemergence, 31 g ai/ha",0
same,"Plant response rating, Dayflower, VA","[8]; Postemergence, 62 g ai/ha",0
same,"Plant response rating, Dayflower, VA","[8]; Postemergence, 125 g ai/ha",0
same,"Plant response rating, Dayflower, VA","[8]; Postemergence, 250 g ai/ha",0
same,"Plant response rating, Dayflower, VA","[8]; Postemergence, 500 g ai/ha",0
same,"Dayflower, VA plant response rating",[8]; 31 g ai/ha,0
same,"Dayflower, VA plant response rating",[8]; 62 g ai/ha,0
same,"Dayflower, VA plant response rating",[8]; 125 g ai/ha,0
same,"Dayflower, VA plant response rating",[8]; 250 g ai/ha,0
same,"Dayflower, VA plant response rating",[8]; 500 g ai/ha,0
same,"Plant response rating, Waterhemp_RES2",[9]; 31 g ai/ha,50
same,"Plant response rating, Waterhemp_RES2",[9]; 62 g ai/ha,60
same,"Plant response rating, Waterhemp_RES2",[9]; 125 g ai/ha,80
same,"Plant response rating, Waterhemp_RES2",[9]; 250 g ai/ha,85
same,"Plant response rating, Waterhemp_RES2",[9]; 500 g ai/ha,90
